# Experimental data reported in ChEMBL document CHEMBL1201862, “PubChem BioAssay data set” (2004).
#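 These data come from cells grown in 96-well plates and exposed to compound for 48 hours at five concentrations. GI50 is the concentration that inhibits growth by half.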 Activity calls are given as the source filed them. Rule as the data show it: active = GI50 up to about 1.1 µM and inactive = higher.
# Key:
# Test in all cases: growth of human tumour cells (NCI), 48 h
# [1] = system: NCI-H522
# [2] = system: SW-620
# [3] = system: HT-29
# [4] = system: T47D
# [5] = system: RPMI-8226
# [6] = system: ACHN
# [7] = system: HCT-116
# [8] = system: COLO 205
# [9] = system: HCT-15
# [10] = system: EKVX
# [11] = system: A498
# [12] = system: UACC-257
# [13] = system: MOLT-4
# [14] = system: HCC 2998
# [15] = system: HOP-62
# [16] = system: Hs-578T
# [17] = system: OVCAR-3
# [18] = system: SNB-19
# [19] = system: SR
# [20] = system: UACC-62
# [21] = system: NCI-H460
# [22] = system: SF-539
# [23] = system: MDA-N
# [24] = system: KM12
# [25] = system: SK-MEL-2
# [26] = system: MDA-MB-231
# [27] = system: Malme-3M
# [28] = system: BT-549
# [29] = system: K562
# [30] = system: SK-MEL-5
# [31] = system: SK-MEL-28
# [32] = system: U-251
# [33] = system: OVCAR-8
# [34] = system: 786-0
# [35] = system: NCI-H23
# [36] = system: UO-31
# [37] = system: TK-10
# [38] = system: MDA-MB-435
# [39] = system: IGROV-1
# [40] = system: SF-295
# [41] = system: MCF7
# [42] = system: SN12C
# [43] = system: LOX IMVI
# [44] = system: NCI/ADR-RES
# [45] = system: OVCAR-5
# [46] = system: PC-3
# [47] = system: HL-60
# [48] = system: A549
smiles,measurement,setting,value
N[C@@H](CCC(=O)NC(Cc1ccccc1)C(=O)NCP(=O)(O)O)C(=O)O (stereo partly drawn),GI50,[1],> 100 µM (inactive)
same,GI50,[2],> 100 µM (inactive)
same,GI50,[3],> 100 µM (inactive)
same,GI50,[4],> 100 µM (inactive)
same,GI50,[5],> 100 µM (inactive)
same,GI50,[6],> 100 µM (inactive)
same,GI50,[7],> 100 µM (inactive)
same,GI50,[8],> 100 µM (inactive)
same,GI50,[9],> 100 µM
same,GI50,[10],> 100 µM (inactive)
same,GI50,[11],> 100 µM (inactive)
same,GI50,[12],> 100 µM (inactive)
same,GI50,[13],> 100 µM (inactive)
same,GI50,[14],> 100 µM (inactive)
same,GI50,[15],> 100 µM (inactive)
same,GI50,[16],> 100 µM (inactive)
same,GI50,[17],> 100 µM (inactive)
same,GI50,[18],> 100 µM (inactive)
same,GI50,[19],> 100 µM (inactive)
same,GI50,[20],> 100 µM (inactive)
same,GI50,[21],> 100 µM (inactive)
same,GI50,[22],> 100 µM (inactive)
same,GI50,[23],> 100 µM (inactive)
same,GI50,[24],> 100 µM (inactive)
same,GI50,[25],> 100 µM (inactive)
same,GI50,[26],> 100 µM (inactive)
same,GI50,[27],> 100 µM (inactive)
same,GI50,[28],61.8 µM (inactive)
same,GI50,[29],> 100 µM (inactive)
same,GI50,[30],> 100 µM (inactive)
same,GI50,[31],> 100 µM (inactive)
same,GI50,[32],> 100 µM (inactive)
same,GI50,[33],> 100 µM (inactive)
same,GI50,[34],> 100 µM (inactive)
same,GI50,[35],> 100 µM (inactive)
same,GI50,[36],> 100 µM (inactive)
same,GI50,[37],> 100 µM (inactive)
same,GI50,[38],> 100 µM (inactive)
same,GI50,[39],> 100 µM (inactive)
same,GI50,[40],0.513 µM (active)
same,GI50,[41],> 100 µM (inactive)
same,GI50,[42],> 100 µM (inactive)
same,GI50,[43],> 100 µM (inactive)
same,GI50,[44],> 100 µM (inactive)
same,GI50,[45],> 100 µM (inactive)
same,GI50,[46],> 100 µM (inactive)
same,GI50,[47],> 100 µM (inactive)
same,GI50,[48],> 100 µM (inactive)
